Experimental data from paper PMC10041525, “New Dual Inhibitors of Bacterial Topoisomerases with Broad-Spectrum Antibacterial Activity and In Vivo Efficacy against Vancomycin-Intermediate Staphylococcus aureus” (Journal of Medicinal Chemistry, 2023).
Converted amounts (≈) assume the structure as drawn. Like-named read-outs stand apart in the source and are kept apart here.

Legend:
[1] = test system: 100 A. baumannii strains (50 MDR, 50 non-MDR); assay: MIC broth microdilution at IHMA Europe, panel of 100 strains; type: cell-based; details: for MIC / MIC50 / MIC90: Acinetobacter baumannii
P. aeruginosa ATCC 27853 = assay: IHMA QC MIC; type: cell-based; details: Pseudomonas aeruginosa
A. baumannii ATCC 17978 = assay: IHMA QC MIC; type: cell-based; details: Acinetobacter baumannii, ATCC17978, read-out: MIC (QC, repeated tests)
Protocol: (§1) The panel of Hungarian clinical isolates and controls measured following the same method as detailed above, and albeit measurements were carried out in 384-well microtiter plates (Corning Inc.).

E. coli ATCC 35218 = assay: IHMA QC MIC; type: cell-based; details: Escherichia coli, ATCC35218, read-out: MIC (QC, repeated tests)
Protocol: as §1

in vitro = in vitro ADME, mouse; details: male
Protocol: The PPB studies were performed by Selvita d.o.o. (Zagreb, Croatia) in mouse plasma (CD-1 male, pooled, commercially obtained from BioIVT) via equilibrium dialysis. Compounds were assayed at 5 μM (0.5% DMSO) in two replicates, and incubation time was 4 h at 37 °C. Samples were taken at 0 min and 4 h. Aliquots from both buffer and plasma compartment matrix were matched and mixed with 6 volumes of STOP solution (acetonitrile/methanol (2:1) + internal standard – diclofenac) and analyzed by LC–MS/MS. Assay controls were caffeine (low), verapamil (moderate binding), and nicardipine (very high binding), and protein contamination was checked.

H. influenzae ATCC 49247 = assay: IHMA QC MIC; type: cell-based; details: Haemophilus influenzae
Text: (§2) Supplement jm2c01905_si_004.xlsx, sheet "QC" | column: MIC [µg/mL]

H. influenzae ATCC 49766 = assay: IHMA QC MIC; type: cell-based
Text: as §2

[2] = test system: N. gonorrhoeae ATCC 49226; assay: IHMA QC MIC; type: cell-based; details: Neisseria gonorrhoeae, ATCC49226
Text: as §2

S. pneumoniae ATCC 49619 = assay: IHMA QC MIC; type: cell-based
Text: as §2

Cc1[nH]c(C(=O)Nc2nc3c(N4CCOCC4)cc(C(=O)O)cc3s2)c(Cl)c1Cl [7a, 2-(3,4-Dichloro-5-methyl-1H-pyrrole-2-carboxamido)-4-morpholinobenzo[d]thiazole-6-carboxylic Acid]
MIC ([1]; A. baumannii IHMA 1769910, Israel 2018, Non-MDR): 16 µg/mL (≈ 35.1 µM)
MIC ([1]; A. baumannii IHMA 1795669, Tunisia 2018, Non-MDR): 1 µg/mL (≈ 2.2 µM)
MIC ([1]; A. baumannii IHMA 1814276, Lebanon 2018, MDR): 8 µg/mL (≈ 17.6 µM)
MIC ([1]; A. baumannii IHMA 1815198, Kuwait 2018, MDR): 8 µg/mL (≈ 17.6 µM)
MIC ([1]; A. baumannii IHMA 1821468, South Africa 2018, Non-MDR): 8 µg/mL (≈ 17.6 µM)
MIC ([1]; A. baumannii IHMA 1829500, Georgia 2018, Non-MDR): 8 µg/mL (≈ 17.6 µM)
MIC ([1]; A. baumannii IHMA 1830924, United Kingdom 2018, Non-MDR): 32 µg/mL (≈ 70.3 µM)
MIC ([1]; A. baumannii IHMA 1849819, Kuwait 2018, MDR): 16 µg/mL (≈ 35.1 µM)
MIC ([1]; A. baumannii IHMA 1849829, Kuwait 2018, Non-MDR): 8 µg/mL (≈ 17.6 µM)
MIC ([1]; A. baumannii IHMA 1857118, Slovenia 2018, Non-MDR): 16 µg/mL (≈ 35.1 µM)
MIC ([1]; A. baumannii IHMA 1863631, France 2018, Non-MDR): 8 µg/mL (≈ 17.6 µM)
MIC ([1]; A. baumannii IHMA 1870054, United States 2018, Non-MDR): 8 µg/mL (≈ 17.6 µM)
MIC ([1]; A. baumannii IHMA 1884428, Italy 2018, Non-MDR): 8 µg/mL (≈ 17.6 µM)
MIC ([1]; A. baumannii IHMA 1900538, Turkey 2018, Non-MDR): 8 µg/mL (≈ 17.6 µM)
MIC ([1]; A. baumannii IHMA 1957343, Portugal 2019, Non-MDR): 8 µg/mL (≈ 17.6 µM)
MIC ([1]; A. baumannii IHMA 1963732, Turkey 2019, MDR): 8 µg/mL (≈ 17.6 µM)
MIC ([1]; A. baumannii IHMA 1977077, Kuwait 2019, Non-MDR): 8 µg/mL (≈ 17.6 µM)
MIC ([1]; A. baumannii IHMA 1983151, Greece 2019, MDR): 8 µg/mL (≈ 17.6 µM)
MIC ([1]; A. baumannii IHMA 1984665, Lithuania 2019, MDR): 8 µg/mL (≈ 17.6 µM)
MIC ([1]; A. baumannii IHMA 1986678, Turkey 2019, Non-MDR): 8 µg/mL (≈ 17.6 µM)
MIC ([1]; A. baumannii IHMA 1986738, Turkey 2019, MDR): 8 µg/mL (≈ 17.6 µM)
MIC ([1]; A. baumannii IHMA 1995161, Czech Republic 2019, Non-MDR): 8 µg/mL (≈ 17.6 µM)
MIC ([1]; A. baumannii IHMA 1997936, Morocco 2019, Non-MDR): 8 µg/mL (≈ 17.6 µM)
MIC ([1]; A. baumannii IHMA 2003279, Turkey 2019, MDR): 8 µg/mL (≈ 17.6 µM)
MIC ([1]; A. baumannii IHMA 2014931, South Africa 2019, Non-MDR): 16 µg/mL (≈ 35.1 µM)
MIC ([1]; A. baumannii IHMA 2019315, Romania 2019, Non-MDR): 8 µg/mL (≈ 17.6 µM)
MIC ([1]; A. baumannii IHMA 2020360, Croatia 2019, MDR): 8 µg/mL (≈ 17.6 µM)
MIC ([1]; A. baumannii IHMA 2031524, Greece 2019, MDR): 8 µg/mL (≈ 17.6 µM)
MIC ([1]; A. baumannii IHMA 2034657, Tunisia 2019, Non-MDR): 16 µg/mL (≈ 35.1 µM)
MIC ([1]; A. baumannii IHMA 2035089, Serbia 2019, MDR): 8 µg/mL (≈ 17.6 µM)
MIC ([1]; A. baumannii IHMA 2035134, Serbia 2019, Non-MDR): 8 µg/mL (≈ 17.6 µM)
MIC ([1]; A. baumannii IHMA 2038976, Hungary 2019, MDR): 8 µg/mL (≈ 17.6 µM)
MIC ([1]; A. baumannii IHMA 2058329, Slovenia 2019, Non-MDR): 8 µg/mL (≈ 17.6 µM)
MIC ([1]; A. baumannii IHMA 2099294, United Kingdom 2019, Non-MDR): 8 µg/mL (≈ 17.6 µM)
MIC ([1]; A. baumannii IHMA 2129256, Qatar 2019, Non-MDR): 8 µg/mL (≈ 17.6 µM)
MIC ([1]; A. baumannii IHMA 2154584, Israel 2020, MDR): 8 µg/mL (≈ 17.6 µM)
MIC ([1]; A. baumannii IHMA 2156634, Turkey 2020, MDR): 8 µg/mL (≈ 17.6 µM)
MIC ([1]; A. baumannii IHMA 2156709, Turkey 2020, MDR): 8 µg/mL (≈ 17.6 µM)
MIC ([1]; A. baumannii IHMA 2157614, Australia 2020, Non-MDR): 16 µg/mL (≈ 35.1 µM)
MIC ([1]; A. baumannii IHMA 2177232, Lithuania 2020, MDR): 8 µg/mL (≈ 17.6 µM)
MIC ([1]; A. baumannii IHMA 2177489, Lithuania 2020, MDR): 8 µg/mL (≈ 17.6 µM)
MIC ([1]; A. baumannii IHMA 2178574, Ukraine 2020, Non-MDR): 16 µg/mL (≈ 35.1 µM)
MIC ([1]; A. baumannii IHMA 2180134, Malaysia 2020, Non-MDR): 8 µg/mL (≈ 17.6 µM)
MIC ([1]; A. baumannii IHMA 2181370, Morocco 2020, MDR): 8 µg/mL (≈ 17.6 µM)
MIC ([1]; A. baumannii IHMA 2183729, Argentina 2020, MDR): 16 µg/mL (≈ 35.1 µM)
MIC ([1]; A. baumannii IHMA 2183849, Argentina 2020, Non-MDR): 8 µg/mL (≈ 17.6 µM)
MIC ([1]; A. baumannii IHMA 2193375, Venezuela 2020, MDR): 8 µg/mL (≈ 17.6 µM)
MIC ([1]; A. baumannii IHMA 2193607, Venezuela 2020, MDR): 8 µg/mL (≈ 17.6 µM)
MIC ([1]; A. baumannii IHMA 2195460, Italy 2020, MDR): 8 µg/mL (≈ 17.6 µM)
MIC ([1]; A. baumannii IHMA 2196914, South Africa 2020, MDR): 8 µg/mL (≈ 17.6 µM)
MIC ([1]; A. baumannii IHMA 2196959, South Africa 2020, MDR): 8 µg/mL (≈ 17.6 µM)
MIC ([1]; A. baumannii IHMA 2203763, Spain 2020, MDR): 8 µg/mL (≈ 17.6 µM)
MIC ([1]; A. baumannii IHMA 2212575, Hungary 2020, Non-MDR): 16 µg/mL (≈ 35.1 µM)
MIC ([1]; A. baumannii IHMA 2215307, Hong Kong 2020, Non-MDR): 8 µg/mL (≈ 17.6 µM)
MIC ([1]; A. baumannii IHMA 2216586, Taiwan 2020, MDR): 8 µg/mL (≈ 17.6 µM)
MIC ([1]; A. baumannii IHMA 2224017, Panama 2020, MDR): 16 µg/mL (≈ 35.1 µM)
MIC ([1]; A. baumannii IHMA 2224303, Panama 2020, Non-MDR): 32 µg/mL (≈ 70.3 µM)
MIC ([1]; A. baumannii IHMA 2233099, Guatemala 2020, MDR): 16 µg/mL (≈ 35.1 µM)
MIC ([1]; A. baumannii IHMA 2233430, Kazakhstan 2020, MDR): 8 µg/mL (≈ 17.6 µM)
MIC ([1]; A. baumannii IHMA 2233548, Kazakhstan 2020, Non-MDR): 8 µg/mL (≈ 17.6 µM)
MIC ([1]; A. baumannii IHMA 2238964, Thailand 2020, MDR): 8 µg/mL (≈ 17.6 µM)
MIC ([1]; A. baumannii IHMA 2239052, Thailand 2020, Non-MDR): 8 µg/mL (≈ 17.6 µM)
MIC ([1]; A. baumannii IHMA 2261047, Belgium 2020, MDR): 16 µg/mL (≈ 35.1 µM)
MIC ([1]; A. baumannii IHMA 2261633, Canada 2020, Non-MDR): 16 µg/mL (≈ 35.1 µM)
MIC ([1]; A. baumannii IHMA 2274234, South Africa 2020, MDR): 8 µg/mL (≈ 17.6 µM)
MIC ([1]; A. baumannii IHMA 2274364, South Africa 2020, MDR): 8 µg/mL (≈ 17.6 µM)
MIC ([1]; A. baumannii IHMA 2275237, Chile 2020, Non-MDR): 8 µg/mL (≈ 17.6 µM)
MIC ([1]; A. baumannii IHMA 2316205, United States 2020, MDR): 8 µg/mL (≈ 17.6 µM)
MIC50 ([1]; MDR n = 50): 8 µg/mL (≈ 17.6 µM)
MIC90 ([1]; MDR n = 50): 8 µg/mL (≈ 17.6 µM)
MIC50 ([1]; all isolates n = 100): 8 µg/mL (≈ 17.6 µM)
MIC90 ([1]; all isolates n = 100): 16 µg/mL (≈ 35.1 µM)
MIC50 ([1]; non-MDR n = 50): 8 µg/mL (≈ 17.6 µM)
MIC90 ([1]; non-MDR n = 50): 16 µg/mL (≈ 35.1 µM)
MIC ([1]; read-out: MAX (maximum MIC), non-MDR n = 50): 32 µg/mL (≈ 70.3 µM)
MIC ([1]; read-out: MAX (maximum MIC; all strains inhibited), MDR n = 50): 16 µg/mL (≈ 35.1 µM)
MIC ([1]; read-out: MAX (maximum MIC; all strains inhibited), all isolates n = 100): 32 µg/mL (≈ 70.3 µM)
MIC ([1]; read-out: MIN (minimum MIC), all isolates n = 100): 1 µg/mL (≈ 2.2 µM)
MIC ([1]; read-out: MIN (minimum MIC), non-MDR n = 50): 1 µg/mL (≈ 2.2 µM)
MAX (maximum MIC; all strains inhibited) ([1]; MDR n = 50): 16 µg/mL
MIC (P. aeruginosa ATCC 27853; ATCC27853, QC strain P. aeruginosa ATCC 27853, test date 2021-11-11): 64 µg/mL (≈ 141 µM)
MIC (P. aeruginosa ATCC 27853; ATCC27853, QC strain P. aeruginosa ATCC 27853, test date 2021-11-26): 16 µg/mL (≈ 35.1 µM)
MIC (A. baumannii ATCC 17978): 8 µg/mL (≈ 17.6 µM)
MIC (E. coli ATCC 35218): 4 µg/mL (≈ 8.78 µM)
recovery at 4 h, 5 μM (in vitro; CD-1, mouse, plasma protein binding assay): 81.5%
fraction unbound at 4 h, 5 μM (in vitro; CD-1, mouse plasma, 5 µM, 4 h, read-out: fu, fraction unbound): 0.018
MIC (H. influenzae ATCC 49247; ATCC49247, QC strain H. influenzae ATCC 49247, test date 2021-11-11): 0.25 µg/mL (≈ 0.549 µM)
MIC (H. influenzae ATCC 49247; ATCC49247, QC strain H. influenzae ATCC 49247, test date 2021-11-26): 0.06 µg/mL (≈ 0.132 µM)
MIC (H. influenzae ATCC 49766; Haemophilus influenzae, ATCC49766): 0.25 µg/mL (≈ 0.549 µM)
MIC (H. influenzae ATCC 49766; QC strain H. influenzae ATCC 49766, test date 2021-11-26): 0.25 µg/mL (≈ 0.549 µM)
MIC [2]: ≤ 0.03 µg/mL
MIC (S. pneumoniae ATCC 49619; QC strain S. pneumoniae ATCC 49619, test date 2021-11-26): 0.25 µg/mL (≈ 0.549 µM)
MIC (S. pneumoniae ATCC 49619; Streptococcus pneumoniae, ATCC49619): 0.25 µg/mL (≈ 0.549 µM)
